Results published in patent publication US20050107289A1, “Anti-microbial peptides and compositions” (priority 2001, published 2005).
Non-standard residues stand in square brackets, D forms with d. Residues, ends and D or L forms follow the SMILES beside them.

What was measured:
[1] = in vivo; details: for bioavailability / Vd / clearance / half-life: Balb/C, mouse, plasma; for bioavailability: intraperitoneal, 100 mg/kg; for Vd / clearance / half-life: iv; for Kel elimination rate constant: Mouse, IV injection
Protocol: IV injection: Solution of peptide in 9% sucrose (1 mg/mL) was injected IV into the tail vein of Balb/C mice at a dose of 3.6 mg/kg. Then the blood was collected immediately from one group of mice (3 mice per group) by bleeding the tail, separately from each mouse (50-100 uL per mouse). Further collections of blood were done from other groups of mice at times 20, 40, 70, 90, 120, 180, and 260 min after injection. Plasma from each blood sample was separated immediately after collection by spinning down red blood cells over a period of 5 min at 4000 rev./min. The plasma was then diluted with an equal volume of saline and refrigerated until analysis.
IP injection: Solutions of peptide in 9% sucrose (8.1 mg/mL) were injected EP into Balb/C mice at a dose of 100 mg/kg. Blood was collected immediately from one group of mice (3 mice per group) by bleeding the tail, separately from each mouse (50-100 uL per mouse). Further collections of blood were done from other groups of mice at times 0.5, 1, 2, 4, 6, 10, 15 h after injection. Plasma from each blood sample was separated immediately after collection by spinning down red blood cells over a period of 5 min at 4000 rev./min. Plasma was then diluted with equal volume of saline and refrigerated until analysis.
Detection of cyclo[RRKWLWW]-HCl in plasma by HPLC: Diluted with saline plasma (50-100 uL) was added to an eluent A (0.1% HCl in 99% H2O/1% ACN (v/v)) (150-300 uL), vortexed, and partial precipitation was removed by centrifugation. The clear solution was injected into an HPLC and the peptide was detected at 280 nm, in the 8-10 min interval, using a gradient of eluent A (0.1% HCl in 99% H2O/1% ACN (v/v)) and eluent B (0.07% HCl in 10% H2O/90% ACN (v/v)) using a flow rate of 1.5 ml/min. The following gradient was used: 30 to 30% B (5 min), followed by 30 to 37% B (5 min), followed by 37 to 40% B (12.5 min).
IV injection: Solution of peptide in 9% sucrose (2 mg/mL) was injected IV into the tail vein of Balb/C mice at a dose of 5 mg/kg. Blood was then collected immediately from one group of mice (3 mice per group) by bleeding the tail, separately from each mouse (50-100 uL per mouse). Further collections of blood were done from other groups of mice at times 30, 60, 120, 230, and 300 min after injection. Plasma from each blood sample was separated immediately after collection by spinning down red blood cells over a period of 5 min at 4000 rev./min. Plasma was then diluted with an equal volume of saline and refrigerated until analysis.
IP injection: Solution of peptide in 9% sucrose (9.8 mg/mL) was injected IP into Balb/C mice at a dose of 100 mg/kg. Blood was then collected immediately from one group of mice (3 mice per group) by bleeding the tail, separately from each mouse (50-100 uL per mouse). Further collections of blood were done from other groups of mice at times 0.5, 1, 2, 4, 6, 10 h after injection. Plasma from each blood sample was separated immediately after collection by spinning down red blood cells over a period of 5 min at 4000 rev./min. Plasma was then diluted with an equal volume of saline and refrigerated until analysis.
Detection of c(KSKWLWW) HC in plasma by HPLC: Samples were diluted with saline plasma (50-100 uL), added to an equal volume of eluent A (0.1% TFA in 96.5% H2O/0.9% ACN/2.4% MeOH (v/v)), vortexed, and partial precipitation was removed by centrifugation. The clear solution was injected into HPLC and the peptide was detected at 280 nm, in the 18-20 min interval, using a gradient of eluent A (0.1% TFA in 96.5% H2O/0.9% ACN/2.4% MeOH (v/v)) and eluent B (0.05% TFA in 8% H2O/72% ACN/20% MeOH (v/v)) using a flow rate of 1.5 ml/min. The following gradient was used: 0 to 0% B (5 min), followed by 0 to 100% B (25 min).

[2] = tested on: S. aureus (MRSA) (ATCC No. 33592); assay: Time-killing curve, S. aureus MRSA ATCC 33592; type: cell-based, Staphylococcus aureus; details: about 4 μg/ml
Protocol: (§1) The speed at which several of the cyclic peptides of the invention kill E. coli JM 109 (DE3), Enterococcus faecium SP 180 and S. aureus (MRSA) (ATCC No. 33591 and 33592) was further tested at room temperature and/or at 37° C. A lower temperature tends to enrich the bacterial cultures for mature bacteria because the bacteria are not growing quickly. […] The presence or absence of immature bacteria in the culture may influence the rate at which the bacteria are killed, because immature bacteria tend to be more susceptible to many forms of antibiotics.
FIGS. 9 and 10 illustrate the time course for killing S. aureus (MRSA) (ATCC No. 33592) with varying concentrations of cyclo[KSKWLWLW] cyclic peptide (SEQ ID NO:12) at room temperature and at 37° C. […] This may be due to growth of a few survivors after the residual cyclic peptide within the culture has been exhausted because the amount of peptide employed in that assay was below the MIC value.

[3] = trypsin, α-chymotrypsin, subtilisin, blood plasma; RP-HPLC over 24 h
Protocol: Cyclic peptides having SEQ ID NO:13, 18, 26, and 29 were assayed for proteolytic susceptibility.

[4] = tested on: E. coli JM109 (DE3); assay: Time-killing curve, E. coli; type: cell-based, Escherichia coli; details: FIG. 8b; at MIC concentrations
Protocol: as §1
In FIG. 8b, the log of the number of E. coli colony forming units (cfu) per ml of culture is plotted versus time treated with cyclo[KRKWLWLW] (closed triangles), cyclo[KQRWLWLW] (closed circles), cyclo[KHLWLW] (closed squares), and cyclo[KKWLW] (open squares) at MIC concentrations. […] Cyclic peptide cyclo[KHKLWLW] kills effectively all E. coli within about 90 minutes. Cyclic peptides cyclo[KRKWLWLW] and cyclo[KKWLW] kill effectively all of the E. coli within about 130 minutes. […] Nonetheless, these cyclic peptides kill both types of bacteria very quickly.

[5] = tested on: S. aureus (MRSA) (ATCC No. 33591); assay: Time-killing curve, S. aureus MRSA ATCC 33591; type: cell-based, Staphylococcus aureus; details: FIG. 8a; at MIC concentrations
Protocol: as §1
To generate the data shown in FIG. 8a, the log of the number of colony forming units (cfu) per ml of culture was determined as a function of time after treatment of S. aureus (MRSA) (ATCC No. 33591) with cyclo[KHLWLW] (closed circles), cyclo[KRKWLWLW] (closed triangles), and cyclo[KQRWLWLW] (open squares) at MIC concentrations. […] The reduction in cfu count was greater than 3 log units. Cyclic peptide cyclo[KHLWLW] killed effectively all S. aureus (MRSA) within about 60 minutes.

SMILES | bioavailability [1] | Vd [1] | clearance [1] | half-life [1] | Kel elimination rate constant [1] | rebound of bacterial population ([2]; 37° C.) | time to kill effectively all bacteria ([2]; 37° C.) | rebound of bacterial population ([2]; room temperature) | time to kill all S. aureus (MRSA) ([2]; room temperature) | proteolytic stability [3] | time to kill effectively all E. coli [4] | time to kill effectively all S. aureus (MRSA) [5]
CC(C)C[C@H]1NC(=O)[C@H](Cc2c[nH]c3ccccc23)NC(=O)[C@@H](CCCCN)NC(=O)[C@H](CO)NC(=O)[C@@H](CCCCN)NC(=O)[C@H](Cc2c[nH]c3ccccc23)NC(=O)[C@@H](CC(C)C)NC(=O)[C@H](Cc2c[nH]c3ccccc23)NC1=O [SEQ ID NO:12, D-Lys-Ser-D-Lys-Trp-D-Leu-Trp-D-Leu-Trp] (cyclo([dK]S[dK]W[dL]W[dL]W)) | 32% | 0.67 L/kg | 0.3 mL/min | 0.83 h | 0.84 h⁻¹ | rebounds by about six hours | within about one hour | no rebound is observed | ≤ 2 h | – | – | –
CC(C)C[C@H]1NC(=O)[C@H](Cc2c[nH]c3ccccc23)NC(=O)[C@@H](CCCCN)NC(=O)[C@H](CCCNC(=N)N)NC(=O)[C@@H](CCCNC(=N)N)NC(=O)[C@H](Cc2c[nH]c3ccccc23)NC(=O)[C@@H](CC(C)C)NC(=O)[C@H](Cc2c[nH]c3ccccc23)NC1=O [SEQ ID NO:18, cyclo-(D-Arg-Arg-D-Lys-Trp-D-Leu-Trp-D-Leu-Trp)] (cyclo([dR]R[dK]W[dL]W[dL]W)) | 9% | 0.58 L/kg | 0.16 mL/min | 1.2 h | 0.6 h⁻¹ | rebounds by about eight hours | within about one hour | no rebound is observed | ≤ 1 h | stable | – | –
CC(C)C[C@H]1NC(=O)[C@H](Cc2c[nH]c3ccccc23)NC(=O)[C@@H](CCCNC(=N)N)NC(=O)[C@H](CCC(N)=O)NC(=O)[C@@H](CCCCN)NC(=O)[C@H](Cc2c[nH]c3ccccc23)NC(=O)[C@@H](CC(C)C)NC(=O)[C@H](Cc2c[nH]c3ccccc23)NC1=O [SEQ ID NO:8, cyclo-(D-Lys-Gln-D-Arg-Trp-D-Leu-Trp-D-Leu-Trp)] (cyclo([dK]Q[dR]W[dL]W[dL]W)) | – | – | – | – | – | – | – | – | – | – | within about thirty minutes | within about five minutes
